The text below walks through data of BindingDB's records for doi:10.1016/j.ejmech.2009.09.041 (Institute For Medical Research and Occupational Health, 2010).

One assay concerns the target Cholinesterase (Homo sapiens, UniProt P06276). Nature of the assay: Inhibition of human plasma BChE by Ellman's method. (In general: Ellman's reagent forms a yellow product with free thiols.)
In the next assay the target is Acetylcholinesterase (Homo sapiens, UniProt P22303). Nature of the assay: Inhibition of human recombinant AChE by Ellman's method.
Chain of Acetylcholinesterase (P22303 whole entry): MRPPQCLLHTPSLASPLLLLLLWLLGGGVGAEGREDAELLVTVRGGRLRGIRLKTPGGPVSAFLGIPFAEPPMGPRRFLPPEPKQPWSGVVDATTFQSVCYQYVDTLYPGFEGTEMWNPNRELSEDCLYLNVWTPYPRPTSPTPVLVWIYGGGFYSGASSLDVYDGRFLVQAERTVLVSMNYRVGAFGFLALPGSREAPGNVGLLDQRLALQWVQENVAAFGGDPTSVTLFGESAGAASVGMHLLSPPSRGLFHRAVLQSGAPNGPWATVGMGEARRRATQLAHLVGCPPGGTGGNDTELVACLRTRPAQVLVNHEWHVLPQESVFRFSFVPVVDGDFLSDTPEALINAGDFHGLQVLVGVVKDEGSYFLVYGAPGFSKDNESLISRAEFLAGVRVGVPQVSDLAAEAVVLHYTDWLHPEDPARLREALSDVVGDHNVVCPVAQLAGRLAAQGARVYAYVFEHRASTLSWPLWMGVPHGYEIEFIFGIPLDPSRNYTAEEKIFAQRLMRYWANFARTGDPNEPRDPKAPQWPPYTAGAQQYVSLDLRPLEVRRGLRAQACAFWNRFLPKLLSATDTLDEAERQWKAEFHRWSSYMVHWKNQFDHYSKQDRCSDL

In general, Ki refers to a dissociation constant, usually derived from enzyme kinetics or from competition with a known ligand.

Chain of Cholinesterase (P06276 whole entry): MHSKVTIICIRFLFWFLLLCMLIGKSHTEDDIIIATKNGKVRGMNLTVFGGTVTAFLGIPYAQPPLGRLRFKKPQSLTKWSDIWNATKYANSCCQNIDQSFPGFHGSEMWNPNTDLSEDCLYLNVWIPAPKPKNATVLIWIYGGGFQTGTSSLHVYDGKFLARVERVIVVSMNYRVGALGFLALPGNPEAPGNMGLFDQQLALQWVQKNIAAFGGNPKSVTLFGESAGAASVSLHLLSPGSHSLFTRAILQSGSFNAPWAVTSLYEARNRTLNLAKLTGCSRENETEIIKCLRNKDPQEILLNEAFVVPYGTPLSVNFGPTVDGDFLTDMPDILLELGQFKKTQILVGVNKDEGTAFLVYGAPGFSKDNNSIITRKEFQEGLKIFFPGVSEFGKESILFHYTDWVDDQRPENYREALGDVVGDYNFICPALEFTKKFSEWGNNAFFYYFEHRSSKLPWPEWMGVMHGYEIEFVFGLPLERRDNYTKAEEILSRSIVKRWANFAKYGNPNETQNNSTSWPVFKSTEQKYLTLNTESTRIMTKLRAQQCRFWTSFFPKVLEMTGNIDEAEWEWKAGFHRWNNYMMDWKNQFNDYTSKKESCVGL

For the compound `O=c1c(O)c(-c2ccc(O)c(O)c2)oc2cc(O)ccc12` [2-(3,4-dihydroxyphenyl)-3,7-dihydroxy-chromen-4-one], the Ki at Cholinesterase is 90 µM; on Acetylcholinesterase it was 100 µM.
For the compound `O=c1c(O)c(-c2ccc(O)cc2)oc2cc(O)cc(O)c12`, the Ki on Cholinesterase is 43.1 µM; on Acetylcholinesterase it was 92.8 µM.
With `O=c1cc(-c2ccc(O)cc2)oc2cc(O)cc(O)c12` [Naringenin, 18], the Ki at Cholinesterase amounted to 37.4 µM; at Acetylcholinesterase, 122 µM.
The matching figures for `O=c1c(O)c(-c2cc(O)c(O)c(O)c2)oc2cc(O)cc(O)c12`: 71 µM and 37.8 µM.
In the same order, the values of `O=c1cc(-c2ccc(O)c(O)c2)oc2cc(O)cc(O)c12` [2-(3,4-dihydroxyphenyl)-5,7-dihydroxy-4H-chromen-4-one] are 166 µM and 65.8 µM.
As for `O=c1c(O)c(-c2ccccc2)oc2cc(O)cc(O)c12` [norizalpinin], the inhibition constant Ki at Cholinesterase was 6.9 µM; at Acetylcholinesterase, 85.6 µM.
The matching figures for `O=c1c(O)c(-c2ccc(O)c(O)c2)oc2cc(O)cc(O)c12` [2-(3,4-dihydroxyphenyl)-3,5,7-trihydroxy-chromone;hydrate]: 68 µM and 38.3 µM.
With `C[C@@H]1O[C@@H](OC[C@H]2O[C@@H](Oc3c(-c4ccc(O)c(O)c4)oc4cc(O)cc(O)c4c3=O)[C@H](O)[C@@H](O)[C@@H]2O)[C@H](O)[C@H](O)[C@H]1O` [3-Rhamnoglucosylquercetin], the Ki is 501 µM at Cholinesterase and over 300 µM at Acetylcholinesterase.
